# Source: publication PMC8948292, “Combining PEGylated mito-atovaquone with MCT and Krebs cycle redox inhibitors as a potential strategy to abrogate tumor cell proliferation” (Scientific Reports, 2022)
# Like-named read-outs stand apart in the source and are kept apart here.
# Columns and labels:
# MiaPaCa-2 cells = assay: Cell proliferation (cell confluence), IncuCyte Live-Cell Analysis System; assay type: cell-based, human; details: for IC50: Homo sapiens; for Inhibition of cell proliferation in combination with AZD-3965: combined with AZD-3965
# Experimental: The following cell lines were obtained from the American Type Culture Collection (Manassas, VA), where they were regularly authenticated: MiaPaCa-2 (ATCC Cat# CRL-1420, human pancreatic cancer cells), U87MG (ATCC Cat# HTB-14, human brain cancer cells), A549 (ATCC Cat# CCL-185, lung cancer cells), and HCT-116 (ATCC Cat# CCL-247, colon cancer cells). All cell lines were grown at 37 °C in 5% carbon dioxide. MiaPaCa-2 cells were maintained in Dulbecco's Modified Eagle Medium (Thermo Fisher Scientific, Waltham, MA; Cat# 11965) supplemented with 10% fetal bovine serum. U87MG, A549, and HCT-116 cells were maintained in RPMI 1640 medium (Thermo Fisher Scientific, Cat# 11875), supplemented with 10% fetal bovine serum. All cells were stored in liquid nitrogen and used within 20 passages after thawing.
# The IncuCyte Live-Cell Analysis System was used to monitor cell proliferation[3],[33],[67]. As shown in previous publications[3],[67], this imaging system is probe-free and noninvasive, and enables continuous monitoring of cell confluence over several days. The increase in the percentage of cell confluence was used as a surrogate marker of cell proliferation. In a 96-well plate, cells were plated at 1,000 cells per well in triplicates and left to adhere overnight. Cells were then treated with Mito-PEG-ATO analogs, and the cell confluency was recorded over several days in the IncuCyte Live-Cell Analysis System.
# [1] = system: mitochondrial respiration (OCR) in intact MiaPaCa-2 cells; assay: Intact cell mitochondrial respiration (basal OCR), Seahorse XF-96; assay type: cell-based, human; details: for OCR (pmol/min/µg protein): intact MiaPaCa-2 cells, baseline OCR, mean, n=4; for IC50: Homo sapiens, read-out: IC50, inhibition of basal OCR in intact cells
# Experimental: (§1) Mitochondrial oxygen consumption was measured using the Seahorse XF-96 Extracellular Flux Analyzer (Agilent, North Billerica, MA)[3],[33],[67],[68]. To determine the intact cell mitochondrial function of MiaPaCa-2 cells in response to Mito-PEG-ATO analogs, we used the bioenergetic function assay previously described[2],[3]. […] From these measurements, indices of mitochondrial function were determined as previously described[2],[3]. For mitochondrial complex activities assays, after cells were treated with Mito-PEG-ATO analogs for 24 h, the OCR-based assessment of mitochondrial complex activities was carried out on acutely permeabilized cells in the presence of different mitochondrial substrates, i.e., pyruvate/malate for complex I and duroquinol for complex III[3],[32],[34],[69]. Rotenone, malonate, and antimycin A (Sigma-Aldrich, St. Louis, MO) were used as specific inhibitors of mitochondrial complexes I, II, and III, respectively. Briefly, cells that were intact after treatments were immediately permeabilized using the Seahorse XF Plasma Membrane Permeabilizer (Agilent). The mitochondrial complex I-induced OCR was assayed in mannitol and sucrose buffer[69] containing 10 mM pyruvate and 1.5 mM malate (substrates for complex I) and 10 mM malonate (which inhibits complex II activities). The mitochondrial complex III-driven OCR was assayed in a mannitol and sucrose buffer containing 0.5 mM duroquinol (substrate for complex III) as well as 1 µM rotenone and 10 mM malonate (which inhibit both complex I and II activities). The IC50 values were determined as previously reported.
# [2] = target: mitochondrial complex III (MiaPaCa-2 cells) (Homo sapiens, UniProt P00156); assay: Complex III-dependent oxygen consumption in permeabilized cells, Seahorse XF-96; assay type: cell-based
# Sequence of mitochondrial complex III (MiaPaCa-2 cells) (P00156 whole entry): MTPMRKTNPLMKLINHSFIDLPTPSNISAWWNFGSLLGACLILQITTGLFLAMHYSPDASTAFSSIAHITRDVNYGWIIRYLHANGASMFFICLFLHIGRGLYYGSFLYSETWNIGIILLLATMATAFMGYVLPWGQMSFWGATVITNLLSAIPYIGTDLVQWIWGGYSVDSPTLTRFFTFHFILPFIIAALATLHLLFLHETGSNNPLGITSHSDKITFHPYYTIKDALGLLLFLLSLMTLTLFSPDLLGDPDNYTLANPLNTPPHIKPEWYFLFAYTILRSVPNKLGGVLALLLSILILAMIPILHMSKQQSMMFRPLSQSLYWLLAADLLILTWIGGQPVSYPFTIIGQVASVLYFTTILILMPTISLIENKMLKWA
# Sequence of mitochondrial complex III (MiaPaCa-2 cells) (P47985 whole entry partner): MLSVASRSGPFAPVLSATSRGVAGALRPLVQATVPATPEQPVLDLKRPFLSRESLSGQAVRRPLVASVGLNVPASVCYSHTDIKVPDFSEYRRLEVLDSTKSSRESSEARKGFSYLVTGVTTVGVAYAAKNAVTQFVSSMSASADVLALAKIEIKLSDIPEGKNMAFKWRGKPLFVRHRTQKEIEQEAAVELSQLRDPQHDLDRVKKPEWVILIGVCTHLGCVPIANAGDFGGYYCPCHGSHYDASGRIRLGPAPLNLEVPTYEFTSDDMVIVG
# Experimental: as §1
# [3] = MiaPaCa-2 cells, 1 µM, control ~90% confluence
# [4] = MiaPaCa-2 cells, 3 µM, control ~90% confluence
# [5] = MiaPaCa-2 cells, 10 µM, control ~90% confluence
smiles,measurement,setting,value
"CC(=O)N[C@@H](CS)C(=O)O [N-acetylcysteine, reference compound]",Restoration of cell proliferation in cells treated with Mito-PEG5-ATO,"MiaPaCa-2 cells; 10 mM, cells treated with Mito-PEG5-ATO, not shown",did not restore cell proliferation
"COCCOCCOCCOCCOC1=C([C@H]2CC[C@H](c3ccc(Cl)cc3)CC2)C(=O)c2ccccc2C1=O [PEG4-ATO, 2-((2,5,8,11-tetraoxatridecan-13-yl)oxy)-3-(trans-4-(4-chlorophenyl)cyclohexyl)naphthalene-1,4-dione]",IC50,"MiaPaCa-2 cells; MIA PaCa-2, MiaPaCa-2 cells, determined when control cells reached ~90% confluence, read-out: IC50, inhibition of cell proliferation",24 µM
same,Cell confluence (% of control),MiaPaCa-2 cells; [3],96.77 % of control
same,Cell confluence (% of control),MiaPaCa-2 cells; [4],98.45 % of control
same,Cell confluence (% of control),"MiaPaCa-2 cells; MiaPaCa-2 cells, 5 µM, control ~90% confluence",92.22 % of control
same,Cell confluence (% of control),MiaPaCa-2 cells; [5],88.90 % of control
same,Cell confluence (% of control),"MiaPaCa-2 cells; MiaPaCa-2 cells, 15 µM, control ~90% confluence",79.02 % of control
same,Cell confluence (% of control),"MiaPaCa-2 cells; MiaPaCa-2 cells, 20 µM, control ~90% confluence",50.78 % of control
same,Cell confluence (% of control),"MiaPaCa-2 cells; MiaPaCa-2 cells, 30 µM, control ~90% confluence",33.44 % of control
same,Cell confluence (% of control),"MiaPaCa-2 cells; MiaPaCa-2 cells, 35 µM, control ~90% confluence",24.27 % of control
same,Cell confluence (% of control),"MiaPaCa-2 cells; MiaPaCa-2 cells, 40 µM, control ~90% confluence",17.96 % of control
same,Cell confluence (% of control),"MiaPaCa-2 cells; MiaPaCa-2 cells, 50 µM, control ~90% confluence",10.27 % of control
same,OCR (pmol/min/µg protein),"[1]; 1 µM, 24 h treatment",14.02 pmol/min/µg protein
same,OCR (pmol/min/µg protein),"[1]; 3 µM, 24 h treatment",11.47 pmol/min/µg protein
same,OCR (pmol/min/µg protein),"[1]; 10 µM, 24 h treatment",8.99 pmol/min/µg protein
same,OCR (pmol/min/µg protein),"[1]; 15 µM, 24 h treatment",8.66 pmol/min/µg protein
same,OCR (pmol/min/µg protein),"[1]; 17.5 µM, 24 h treatment",8.14 pmol/min/µg protein
same,OCR (pmol/min/µg protein),"[1]; 20 µM, 24 h treatment",6.77 pmol/min/µg protein
same,OCR (pmol/min/µg protein),"[1]; 22.5 µM, 24 h treatment",6.79 pmol/min/µg protein
same,OCR (pmol/min/µg protein),"[1]; 25 µM, 24 h treatment",5.93 pmol/min/µg protein
same,OCR (pmol/min/µg protein),"[1]; 30 µM, 24 h treatment",6.26 pmol/min/µg protein
same,OCR (pmol/min/µg protein),"[1]; 40 µM, 24 h treatment",4.53 pmol/min/µg protein
same,OCR (pmol/min/µg protein),"[1]; 50 µM, 24 h treatment",2.22 pmol/min/µg protein
same,IC50,"[1]; MIA PaCa-2, MiaPaCa-2 cells, 24 h treatment",22 µM
"[H]/N=C(/N)N/C(=N/[H])NCCc1ccccc1 [phenformin, reference compound]",Inhibition of cell proliferation in combination with AZD-3965,MiaPaCa-2 cells; MiaPaCa-2 cells,Synergistic inhibition
"O=C1C(OCCOCC[P+](c2ccccc2)(c2ccccc2)c2ccccc2)=C([C@H]2CC[C@H](c3ccc(Cl)cc3)CC2)C(=O)c2ccccc21.[Br-] [Mito-PEG2-ATO, [2-(2-((3-(trans-4-(4-chlorophenyl)cyclohexyl)-1,4-dioxo-1,4-dihydronaphthalen-2-yl)oxy)ethoxy)ethyl]triphenylphosphonium bromide]",IC50,"MiaPaCa-2 cells; MIA PaCa-2, read-out: IC50, inhibition of cell proliferation",0.3 µM
same,Cell confluence (% of control),"MiaPaCa-2 cells; MiaPaCa-2 cells, 0.003 µM, control ~90% confluence",95.33 % of control
same,Cell confluence (% of control),"MiaPaCa-2 cells; MiaPaCa-2 cells, 0.01 µM, control ~90% confluence",101.09 % of control
same,Cell confluence (% of control),"MiaPaCa-2 cells; MiaPaCa-2 cells, 0.03 µM, control ~90% confluence",98.91 % of control
same,Cell confluence (% of control),"MiaPaCa-2 cells; MiaPaCa-2 cells, 0.05 µM, control ~90% confluence",101.49 % of control
same,Cell confluence (% of control),"MiaPaCa-2 cells; MiaPaCa-2 cells, 0.1 µM, control ~90% confluence",100.20 % of control
same,Cell confluence (% of control),"MiaPaCa-2 cells; MiaPaCa-2 cells, 0.2 µM, control ~90% confluence",91.59 % of control
same,Cell confluence (% of control),"MiaPaCa-2 cells; MiaPaCa-2 cells, 0.3 µM, control ~90% confluence",54.02 % of control
same,Cell confluence (% of control),"MiaPaCa-2 cells; MiaPaCa-2 cells, 0.5 µM, control ~90% confluence",5.85 % of control
same,Cell confluence (% of control),MiaPaCa-2 cells; [3],3.35 % of control
same,Cell confluence (% of control),MiaPaCa-2 cells; [4],3.28 % of control
same,Cell confluence (% of control),MiaPaCa-2 cells; [5],2.85 % of control
same,OCR (pmol/min/µg protein),"[1]; 0.01 µM, 24 h treatment",16.21 pmol/min/µg protein
same,OCR (pmol/min/µg protein),"[1]; 0.1 µM, 24 h treatment",14.62 pmol/min/µg protein
same,OCR (pmol/min/µg protein),"[1]; 0.2 µM, 24 h treatment",14.19 pmol/min/µg protein
same,OCR (pmol/min/µg protein),"[1]; 0.3 µM, 24 h treatment",13.58 pmol/min/µg protein
same,OCR (pmol/min/µg protein),"[1]; 0.4 µM, 24 h treatment",12.73 pmol/min/µg protein
same,OCR (pmol/min/µg protein),"[1]; 0.5 µM, 24 h treatment",10.74 pmol/min/µg protein
same,OCR (pmol/min/µg protein),"[1]; 0.75 µM, 24 h treatment",8.54 pmol/min/µg protein
same,OCR (pmol/min/µg protein),"[1]; 1 µM, 24 h treatment",6.82 pmol/min/µg protein
same,OCR (pmol/min/µg protein),"[1]; 3 µM, 24 h treatment",1.26 pmol/min/µg protein
same,OCR (pmol/min/µg protein),"[1]; 10 µM, 24 h treatment",-0.10 pmol/min/µg protein
same,IC50,"[1]; MIA PaCa-2, 24 h",0.76 µM
same,"Complex III activity (OCR, % of control)",[2]; 0.01 µM,103.6 % of control
same,"Complex III activity (OCR, % of control)",[2]; 0.1 µM,95.3 % of control
same,"Complex III activity (OCR, % of control)",[2]; 0.2 µM,101.4 % of control
same,"Complex III activity (OCR, % of control)",[2]; 0.3 µM,99.3 % of control
same,"Complex III activity (OCR, % of control)",[2]; 0.4 µM,99.1 % of control
same,"Complex III activity (OCR, % of control)",[2]; 0.5 µM,88.9 % of control
same,"Complex III activity (OCR, % of control)",[2]; 0.75 µM,75.4 % of control
same,"Complex III activity (OCR, % of control)",[2]; 1 µM,64.3 % of control
same,"Complex III activity (OCR, % of control)",[2]; 3 µM,15.0 % of control
same,IC50,"[2]; MiaPaCa-2 cells, 24 h treatment, antimycin A-inhibitable OCR, read-out: IC50, complex III-induced oxygen consumption (Complex III activity)",1.2 µM
"CN(C)C(=N)N=C(N)N [metformin, reference compound]",Inhibition of cell proliferation in combination with AZD-3965,MiaPaCa-2 cells; MiaPaCa-2 cells,Synergistic inhibition
"O=C(Cc1cccc(OC(F)(F)F)c1)Nc1ccc(CCCCc2nnc(NC(=O)Cc3ccccn3)s2)nn1 [CB-839, Telaglenastat, reference compound]",IC50,"MiaPaCa-2 cells; MIA PaCa-2, MiaPaCa-2 cells, inhibitor alone, control ~90% confluence, read-out: IC50 (cell proliferation) without Mito-PEG5-ATO",19 µM
same,Inhibition of cell proliferation in combination with Mito-PEG5-ATO (combination index),"MiaPaCa-2 cells; MiaPaCa-2 cells, combined with Mito-PEG5-ATO",exhibits synergy
